Data set [1] concerns T1, TDCEFS (tyrosine decarboxylase from E. faecalis v583).
T1 construct: 6xHis; made in house; host or cells: Escherichia coli BL21 (DE3), plasmid pSK18 (pET15b)
Nature of the data set: Michaelis–Menten enzyme kinetics of purified tyrosine decarboxylase. The format is biochemical, Enterococcus faecalis v583. An excerpt: (§1) To further characterize the substrate specificity and kinetic parameters of the bacterial TDCs, tdc genes from E. faecalis v583 (TDCEFS) and E. faecium W54 (TDCEFM and ^PTDCEFM) were expressed in Escherichia coli BL21 (DE3) and then purified.
(§2) The human DOPA decarboxylase gene cloned in pET15b was ordered from GenScript (Piscataway, USA) (Supplementary Table 6). TDC-encoding genes from E. faecalis v583 (TDCEFS, accession: EOT87933), E. faecium W54 (TDCEFM, accession: MH358385; ^PTDCEFM, accession: MH358384) were amplified using Phusion High-fidelity DNA polymerase and primers listed in Supplementary Table 8. All amplified genes were cloned in pET15b, resulting in pSK18, pSK11, and pSK22, respectively (Supplementary Table 6). Plasmids were maintained in E. coli DH5α and verified by Sanger sequencing before transformation to E. coli BL21 (DE3). Overnight cultures were diluted 1:50 in fresh LB medium with the appropriate antibiotic and grown to OD600 = 0.7–0.8. Protein translation was induced with 1 mM Isopropyl β-D-1-thiogalactopyranoside (IPTG, 11411446001, Roche Diagnostics) and cultures were incubated overnight at 18 °C. The cells were washed with 1/5th of 1 × ice-cold PBS and stored at −80 °C or directly used for protein isolation. Cell pellets were thawed on ice and resuspended in 1/50th of buffer A (300 mM NaCl; 10 mM imidazole; 50 mM KPO4, pH 7.5) containing 0.2 mg/mL lysozyme (105281, Merck) and 2 µg/mL DNAse (11284932001, Roche Diagnostics), and incubated for at least 10 min on ice before sonication (10 cycles of 15 s with 30 s cooling at 8 microns amplitude) using Soniprep-150 plus (Beun de Ronde, Abcoude, The Netherlands). Cell debris were removed by centrifugation at 20,000 × g for 20 min at 4 °C. The 6 × his-tagged proteins were purified using a nickel-nitrilotriacetic acid (Ni-NTA) agarose matrix (30250, Qiagen). Cell-free extracts were loaded on 0.5 ml Ni-NTA matrixes and incubated on a roller shaker for 2 h at 4 °C. The Ni-NTA matrix was washed three times with 1.5 ml buffer B (300 mM NaCl; 20 mM imidazole; 50 mM KPO4, pH 7.5) before elution with buffer C (300 mM NaCl; 250 mM imidazole; 50 mM KPO4, pH 7.5). Imidazole was removed from purified protein fractions using Amicon Ultra centrifugal filters (UFC505024, Merck) and washed three times and reconstituted in buffer D (50 mM Tris-HCL; 300 mM NaCl; pH 7.5) for TDCEFS, and TDCEFM, buffer E (100 mM KPO4; pH 7.4) for ^PTDCEFM and buffer F (100 mM KPO4; 0.1 mM pyridoxal-5-phosphate; pH 7.4) for DDC. Protein concentrations were measured spectrophotometrically (Nanodrop 2000, Isogen, De Meern, The Netherlands) using the predicted extinction coefficient and molecular weight from ExPASy ProtParam tool (www.web.expasy.org/protparam/).
(§3) Enzyme kinetics were performed in 200 mM potassium acetate buffer containing 0.1 mM PLP (pyridoxal-5-phosphate, P9255, Sigma, The Netherlands) and 10 nM of enzyme at pH 5 for TDCEFS and TDCEFM, and pH 4.5 for ^PTDCEFM. […] Michaelis–Menten kinetic curves were fitted using GraphPad Prism 7. […] Reactions were stopped with 0.7% HClO4, filtered and analyzed on the HPLC-ED-system described below.

The test system of data set [2] is TDCEFM (tyrosine decarboxylase from E. faecium W54). Described as above. The format is biochemical, Enterococcus faecium W54.
From the text: as §1, §2, §3

Data set [3] deals with T2, ^PTDCEFM (paralogous tyrosine decarboxylase from E. faecium W54).
T2 construct: 6xHis; made in house; host or cells: Escherichia coli BL21 (DE3), plasmid pSK22 (pET15b)
Kind of data set: Michaelis–Menten enzyme kinetics of purified paralogous tyrosine decarboxylase. Type of data set: biochemical, Enterococcus faecium W54.
From the text: as §1, §2, §3

Data set [4] relates to E. faecalis v583. Kind of data set: Bacterial cultures incubated anaerobically with levodopa, HPLC-ED. The conditions noted are these: E. faecalis v583 (enterococcal isolates), overnight culture, anaerobic, 37 °C, 100 µM levodopa. The format is cell-based, Enterococcus faecalis v583.
Data set [5] has as its system E. faecium W54. The description is as above. The format is cell-based, Enterococcus faecium W54. The following applies: E. faecium W54 (enterococcal isolates), overnight culture, anaerobic, 37 °C, 100 µM levodopa.
A further data set has as its system L. brevis W63. The data set is described as above. The conditions noted are these: L. brevis W63, overnight culture, anaerobic, 37 °C, 100 µM levodopa.
A further data set has as its target T3, TDCEFS (Enterococcus faecalis, UniProt Q838D6).
T3 construct: 6xHis; made in house; host or cells: Escherichia coli BL21 (DE3), plasmid pSK18 (pET15b)
Nature of the data set: IC50 curves with carbidopa as inhibitor, levodopa as substrate. The format is biochemical, Enterococcus faecalis v583.

Another data set deals with TDCEFM (Enterococcus faecium, UniProt Q3Y2S5). Described as above. The format is biochemical, Enterococcus faecium W54.
The target of another data set is T4, ^PTDCEFM (Enterococcus faecium, UniProt A0A481NV25).
T4 construct: 6xHis; made in house; host or cells: Escherichia coli BL21 (DE3), plasmid pSK22 (pET15b)
The description is as above. The format is biochemical, Enterococcus faecium W54.

Data set [6] addresses T5, human DOPA decarboxylase (DDC) (Homo sapiens, UniProt P20711).
T5 construct: 6xHis; host or cells: Escherichia coli BL21 (DE3)
T5 sequence (P20711 1-480): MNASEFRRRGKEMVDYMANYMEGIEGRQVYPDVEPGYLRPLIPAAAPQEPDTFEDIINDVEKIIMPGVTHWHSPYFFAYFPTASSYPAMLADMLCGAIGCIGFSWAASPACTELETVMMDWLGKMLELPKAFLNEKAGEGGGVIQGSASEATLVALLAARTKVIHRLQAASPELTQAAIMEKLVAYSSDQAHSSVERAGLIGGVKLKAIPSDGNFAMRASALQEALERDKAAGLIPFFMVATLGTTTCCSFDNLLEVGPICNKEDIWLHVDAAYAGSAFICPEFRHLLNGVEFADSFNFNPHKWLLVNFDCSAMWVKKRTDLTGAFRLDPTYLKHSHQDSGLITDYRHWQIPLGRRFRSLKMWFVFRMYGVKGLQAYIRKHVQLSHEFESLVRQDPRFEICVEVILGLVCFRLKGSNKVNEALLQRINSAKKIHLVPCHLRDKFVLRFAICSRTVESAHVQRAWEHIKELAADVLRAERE
Described as above. Type of data set: biochemical.

The target of data set [7] is bacterial TDCs versus human DOPA decarboxylase. Nature of the data set: Comparison of the inhibitory constants (Ki^TDC/Ki^DDC). The format is biochemical. The conditions noted are these: over the three bacterial TDCs. As to the method: as §3
The subject of data set [8] is E. faecium W54. Kind of data set: Levodopa decarboxylation by stationary batch cultures co-incubated with human DOPA decarboxylase inhibitors. The conditions noted are these: E. faecium W54, OD600 ~2.0, stationary phase, 15 min, 100 µM levodopa, equimolar or 21.7 µM carbidopa.
For data set [9], the system named is E. faecalis v583. Described as above. The following applies: E. faecalis v583, OD600 ~2.0, stationary phase, 15 min, 100 µM levodopa, equimolar or 21.7 µM carbidopa.
Substrate in data set [10]: N[C@@H](Cc1ccc(O)c(O)c1)C(=O)O
Nature of the data set: purified protein, by the assay type. The conditions noted are these: other: DDC, levodopa as substrate, as used for Ki.

[11] abbreviates: levodopa as substrate, as used for Ki.
Where [12] appears, read: pH 5.0, 10 nM enzyme, substance as substrate.
The mark [13] stands for this setting: ^PTDCEFM, pH 4.5, 10 nM enzyme, substance as substrate.

Usually Km stands for the substrate concentration at which the rate is half of its maximum. As usually defined, the Vmax is the rate approached at saturating substrate. As a reminder, the IC50 is the concentration needed to halve the response being measured. A lower IC50 goes with inhibition by little substance.

TDCEFM, sequence (Q3Y2S5 entry or part of it): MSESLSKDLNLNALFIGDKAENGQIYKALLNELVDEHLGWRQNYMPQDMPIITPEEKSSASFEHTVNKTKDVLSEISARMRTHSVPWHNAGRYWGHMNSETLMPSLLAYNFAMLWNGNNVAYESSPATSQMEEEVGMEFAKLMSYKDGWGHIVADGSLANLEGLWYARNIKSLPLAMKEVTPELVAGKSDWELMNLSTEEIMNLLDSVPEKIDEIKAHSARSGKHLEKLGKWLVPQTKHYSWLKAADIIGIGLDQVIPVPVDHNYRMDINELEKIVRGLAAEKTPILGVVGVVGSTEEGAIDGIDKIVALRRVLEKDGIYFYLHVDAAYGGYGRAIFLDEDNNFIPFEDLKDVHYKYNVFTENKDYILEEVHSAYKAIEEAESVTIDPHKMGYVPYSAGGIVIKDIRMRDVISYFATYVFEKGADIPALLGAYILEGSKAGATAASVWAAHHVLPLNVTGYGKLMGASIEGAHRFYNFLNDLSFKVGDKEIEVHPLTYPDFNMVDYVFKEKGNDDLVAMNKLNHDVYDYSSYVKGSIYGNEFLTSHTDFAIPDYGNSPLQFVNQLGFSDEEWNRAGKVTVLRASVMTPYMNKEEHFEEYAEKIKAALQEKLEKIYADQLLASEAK
T4 sequence (A0A481NV25 whole entry): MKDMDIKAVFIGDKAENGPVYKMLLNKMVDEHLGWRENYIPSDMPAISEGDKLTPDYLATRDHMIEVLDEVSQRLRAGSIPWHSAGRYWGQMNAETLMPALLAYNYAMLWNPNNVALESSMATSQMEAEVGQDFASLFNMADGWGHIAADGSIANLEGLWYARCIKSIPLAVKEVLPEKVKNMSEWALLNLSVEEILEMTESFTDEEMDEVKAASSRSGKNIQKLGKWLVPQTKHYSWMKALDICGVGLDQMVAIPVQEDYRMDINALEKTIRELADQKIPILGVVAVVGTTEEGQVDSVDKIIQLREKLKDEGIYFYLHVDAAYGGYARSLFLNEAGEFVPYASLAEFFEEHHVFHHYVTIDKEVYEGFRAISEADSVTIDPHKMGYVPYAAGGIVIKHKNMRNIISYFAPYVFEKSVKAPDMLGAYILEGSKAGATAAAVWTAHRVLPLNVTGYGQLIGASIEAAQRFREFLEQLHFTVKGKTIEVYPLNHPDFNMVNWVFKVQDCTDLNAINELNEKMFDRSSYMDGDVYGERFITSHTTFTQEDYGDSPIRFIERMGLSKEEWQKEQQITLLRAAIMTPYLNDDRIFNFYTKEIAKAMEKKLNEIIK
T3 sequence (Q838D6 whole entry): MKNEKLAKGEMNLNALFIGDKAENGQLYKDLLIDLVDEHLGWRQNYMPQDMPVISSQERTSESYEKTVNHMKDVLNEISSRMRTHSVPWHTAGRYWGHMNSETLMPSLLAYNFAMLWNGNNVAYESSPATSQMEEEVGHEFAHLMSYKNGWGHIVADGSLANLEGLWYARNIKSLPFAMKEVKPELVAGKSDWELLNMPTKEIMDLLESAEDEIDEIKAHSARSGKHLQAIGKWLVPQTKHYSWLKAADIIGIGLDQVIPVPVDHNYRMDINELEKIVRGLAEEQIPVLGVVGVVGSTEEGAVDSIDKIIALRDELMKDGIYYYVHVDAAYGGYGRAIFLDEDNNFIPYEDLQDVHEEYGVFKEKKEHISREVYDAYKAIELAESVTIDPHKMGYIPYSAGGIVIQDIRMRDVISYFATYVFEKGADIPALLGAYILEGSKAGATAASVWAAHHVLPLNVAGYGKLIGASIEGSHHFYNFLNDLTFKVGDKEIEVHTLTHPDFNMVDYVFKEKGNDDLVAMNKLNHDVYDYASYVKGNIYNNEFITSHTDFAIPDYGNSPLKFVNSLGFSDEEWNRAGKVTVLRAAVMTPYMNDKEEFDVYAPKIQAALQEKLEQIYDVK

`N[C@@H](Cc1ccc(O)c(O)c1)C(=O)O` [levodopa, L-3,4-dihydroxyphenylalanine]: the Km in data set [1] (setting [11]) turned out to be 3040 µM; in [1] (setting [12]), 3000 ± 400 µM; in data set [2] (setting [11]), 7240 µM; in [2] (setting [12]), 7200 ± 800 µM; in [3] (PTDCEFM, levodopa as substrate, as used for Ki) it was 448 µM; in data set [3] (setting [13]), 400 ± 100 µM. The Kcat in data set [1] (setting [12]) was 58.85 ± 2.28 s⁻¹; in data set [2] (setting [12]), 42.48 ± 2.22 s⁻¹; in data set [3] (setting [13]), 5.707 ± 0.35 s⁻¹. The Vmax in data set [1] (setting [12]) turned out to be 35.3 ± 1.4 µM/min; in data set [2] (setting [12]), 25.5 ± 1.3 µM/min; in data set [3] (setting [13]), 3.4 ± 0.2 µM/min.

As for `N[C@@H](Cc1ccc(O)cc1)C(=O)O` [tyrosine, L-tyrosine], the Kcat in [1] (setting [12]) was 116 ± 4.8 s⁻¹; in data set [2] (setting [12]) it was 36.73 ± 4.12 s⁻¹; in data set [3] (setting [13]), 7.26 ± 0.32 s⁻¹. Also, the figures for the Km in data set [1] (setting [12]), in [2] (setting [12]) and in [3] (setting [13]) were 600 ± 100 µM, 1500 ± 300 µM and 200 ± 50 µM, respectively. For the same molecule, the Vmax in [1] (setting [12]) turned out to be 69.6 ± 2.9 µM/min; in data set [2] (setting [12]), 22 ± 2.5 µM/min; in data set [3] (setting [13]), 4.4 ± 0.2 µM/min. Moreover, the “conversion of tyrosine and levodopa into tyramine and dopamine by the culture” value with E. faecalis v583 [4], with E. faecium W54 [5] and in the data set with L. brevis W63 was “able to convert” throughout.

Consider `C[C@@](Cc1ccc(O)c(O)c1)(NN)C(=O)O` [carbidopa], for which the IC50 is 93.8 µM against TDCEFS, 79.2 µM against TDCEFM, 201 µM against ^PTDCEFM and 0.01 µM in data set [6]. The HillSlope at TDCEFS (TDCEFS, IC50 curve) turned out to be 1.6; on TDCEFM (TDCEFM, IC50 curve), 1.3; at ^PTDCEFM (PTDCEFM, IC50 curve), 1.1; in [6] (DDC, IC50 curve) it was 1.16. The “[IC50]/[s]” value is recorded as 9% on TDCEFS (TDCEFS, [S] levodopa 1000 µM); 8% at TDCEFM (TDCEFM, [S] levodopa 1000 µM); 40% on ^PTDCEFM (PTDCEFM, [S] levodopa 500 µM); 0.01% in [6] (DDC, [S] levodopa 100 µM). Also, the Ki is 70.6 µM on TDCEFS (read-out: Ki=IC50/(1+([S]/Km))), 69.6 µM on TDCEFM (read-out: Ki=IC50/(1+([S]/Km))), 95.1 µM on ^PTDCEFM (read-out: Ki=IC50/(1+([S]/Km))) and 0.005 µM in data set [6] (read-out: Ki=IC50/(1+([S]/Km))). Also, the “Ki^TDC/Ki^DDC, times more potent inhibitor of human DOPA decarboxylase than bacterial TDCs” value in [7] is listed as 1.4–1.9 × 10^4. Besides, the “levodopa conversion by batch culture on co-incubation with carbidopa” value in the data set on E. faecium W54 [8] and in the data set on E. faecalis v583 [9] was “unaffected” throughout.

B1: human DOPA decarboxylase (DDC) (Homo sapiens) (protein)
chain: T5 sequence (P20711 1-480)
As to B1, the Michaelis constant (Km) in data set [10] is 87.3 µM.

The values are drawn from PMC6338741 (Nature Communications, 2019).
